Test results: ChEMBL document CHEMBL5120740, “Design, synthesis and biological evaluation of combretastatin A-4 sulfamate derivatives as potential anti-cancer agents” (RSC Med Chem, 2021)

How the values were obtained:
[1] = Inhibition of Arylsulfatase (unknown origin) using potassium p-nitrophenyl sulfate as substrate incubated for 5 mins; set-up: species or system Homo sapiens
MCF7 = assay: Antiproliferative activity against human MCF7 cells assessed as reduction in cell viability after 24 hrs by CCK-8 assay; format: functional, cell-based; details: MCF7, 24 h
MGC-803 = assay: Antiproliferative activity against human MGC-803 cells assessed as reduction in cell viability after 24 hrs by CCK-8 assay; format: functional, cell-based; details: MGC-803, 24 h
Tubulin = Tubulin (Sus scrofa, UniProt P02554+P02550); assay: Inhibition of pig brain tubulin polymerization by spectrophotometric method; format: tissue-based
MKN-45 = assay: Antiproliferative activity against human MKN-45 cells assessed as reduction in cell viability after 24 hrs by CCK-8 assay; format: functional, cell-based; details: MKN-45, 24 h
HCT-116 = assay: Antiproliferative activity against human HCT-116 cells assessed as reduction in cell viability after 24 hrs by CCK-8 assay; format: functional, cell-based; details: HCT-116, 24 h
HepG2 = assay: Antiproliferative activity against human HepG2 cells assessed as reduction in cell viability after 24 hrs by CCK-8 assay; format: functional, cell-based; details: HepG2, 24 h
HeLa = assay: Antiproliferative activity against human HeLa cells assessed as reduction in cell viability after 24 hrs by CCK-8 assay; format: functional, cell-based
[2] = Inhibition of bovine brain tubulin polymerization by spectrophotometric method; format: tissue-based, Bos taurus

COc1ccc(/C=C/c2cc(OC)c(OC)c(OC)c2)cc1OS(N)(=O)=O
IC50 [1]: 12.9 µM | IC50 (MCF7): 5.44 µM | IC50 (MGC-803): 2.98 µM | IC50 (Tubulin): 55.7 µM | IC50 (MKN-45): 10.5 µM | IC50 (HCT-116): 1.57 µM | IC50 (HepG2): 0.87 µM | IC50 (HeLa): 4.5 µM

COc1ccc(CCc2cc(OC)c(OC)c(OC)c2)cc1OS(N)(=O)=O
IC50 [1]: > 100 µM | IC50 (MCF7): 5.91 µM | IC50 (MGC-803): 3.61 µM | IC50 (Tubulin): > 100 µM | IC50 (MKN-45): 11.9 µM | IC50 (HCT-116): 2.63 µM | IC50 (HepG2): 1.06 µM | IC50 (HeLa): 9.04 µM

COc1cc(/C=C/c2ccc(OC(F)F)c(OS(N)(=O)=O)c2)cc(OC)c1OC
IC50 (MCF7): 13.8 µM | IC50 (MGC-803): 9.24 µM | IC50 (MKN-45): 13.8 µM | IC50 (HCT-116): 12.8 µM | IC50 (HepG2): 5.54 µM | IC50 (HeLa): 8.42 µM

COc1cc(/C=C\c2cccc(OS(N)(=O)=O)c2)cc(OC)c1OC
IC50 [1]: 0.47 µM | IC50 (MCF7): 11.1 µM | IC50 (MGC-803): 8.53 µM | IC50 (Tubulin): > 100 µM | IC50 (MKN-45): 15.3 µM | IC50 (HCT-116): 9.5 µM | IC50 (HepG2): 9.36 µM | IC50 (HeLa): 16.3 µM

COc1cc(/C=C\c2ccc(OC(F)F)c(OS(N)(=O)=O)c2)cc(OC)c1OC
IC50 [1]: 4.64 µM | IC50 (MCF7): 0.29 µM | IC50 (MGC-803): 9 µM | IC50 (Tubulin): 72.6 µM | IC50 (MKN-45): 12.5 µM | IC50 (HCT-116): 9.11 µM | IC50 (HepG2): 4.81 µM | IC50 (HeLa): 7.82 µM

COc1cc(/C=C/c2cccc(OS(N)(=O)=O)c2)cc(OC)c1OC
IC50 (MCF7): 27.4 µM | IC50 (MGC-803): 27 µM | IC50 (MKN-45): 25 µM | IC50 (HCT-116): 40.3 µM | IC50 (HepG2): 11.8 µM | IC50 (HeLa): 19 µM

COc1cc(CCc2cccc(OS(N)(=O)=O)c2)cc(OC)c1OC
IC50 (MCF7): > 100 µM | IC50 (MGC-803): 17.6 µM | IC50 (MKN-45): 25.7 µM | IC50 (HCT-116): 52.5 µM | IC50 (HepG2): 12 µM | IC50 (HeLa): 27.1 µM

COc1ccc(/C=C\c2cc(OC)c(OC)c(OC)c2)cc1NS(N)(=O)=O
IC50 [1]: > 100 µM | IC50 (MCF7): 11.2 µM | IC50 (MGC-803): 0.5 µM | IC50 (Tubulin): 86.2 µM | IC50 (MKN-45): 9.56 µM | IC50 (HCT-116): 3.29 µM | IC50 (HepG2): 0.75 µM | IC50 (HeLa): 0.27 µM

CNS(=O)(=O)Oc1cc(/C=C\c2cc(OC)c(OC)c(OC)c2)ccc1OC
IC50 [1]: > 100 µM | IC50 (MCF7): 0.53 µM | IC50 (MGC-803): 0.0037 µM | IC50 (Tubulin): 1.8 µM | IC50 (MKN-45): 0.0073 µM | IC50 (HCT-116): 0.0113 µM | IC50 (HepG2): 0.0039 µM | IC50 (HeLa): 0.0034 µM

CCOc1ccc(/C=C\c2cc(OC)c(OC)c(OC)c2)cc1OS(N)(=O)=O
IC50 [1]: 90.2 µM | IC50 (MCF7): 0.3 µM | IC50 (MGC-803): 0.27 µM | IC50 (Tubulin): 3.1 µM | IC50 (MKN-45): 0.32 µM | IC50 (HCT-116): 0.55 µM | IC50 (HepG2): 0.41 µM | IC50 (HeLa): 0.48 µM

CCOc1ccc(CCc2cc(OC)c(OC)c(OC)c2)cc1OS(N)(=O)=O
IC50 (MCF7): 14.8 µM | IC50 (MGC-803): 3.59 µM | IC50 (MKN-45): 7.67 µM | IC50 (HCT-116): 10.2 µM | IC50 (HepG2): 3.65 µM | IC50 (HeLa): 2.93 µM

COc1ccc(/C=C\c2cc(OC)c(OC)c(OC)c2)cc1OS(=O)(=O)N(C)C
IC50 [1]: > 100 µM | IC50 (MCF7): 11.1 µM | IC50 (MGC-803): 7.14 µM | IC50 (Tubulin): 12.5 µM | IC50 (MKN-45): 8.95 µM | IC50 (HCT-116): 0.37 µM | IC50 (HepG2): 9.96 µM | IC50 (HeLa): 14.3 µM

COc1ccc(/C=C/c2cc(OC)c(OC)c(OC)c2)cc1NS(N)(=O)=O
IC50 (MCF7): 17.1 µM | IC50 (MGC-803): 6.19 µM | IC50 (MKN-45): 18.9 µM | IC50 (HCT-116): 8.65 µM | IC50 (HepG2): 7.53 µM | IC50 (HeLa): 0.38 µM

COc1ccc(/C=C\c2cc(OC)c(OC)c(OC)c2)cc1OS(N)(=O)=O
IC50 [1]: 6.16 µM | IC50 (MCF7): 0.11 µM | IC50 (MGC-803): 0.0047 µM | IC50 (Tubulin): 6.6 µM | IC50 (MKN-45): 0.0095 µM | IC50 (HCT-116): 0.005 µM | IC50 (HepG2): 0.0036 µM | IC50 (HeLa): 0.0061 µM

COc1ccc(CCc2cc(OC)c(OC)c(OC)c2)cc1NS(N)(=O)=O
IC50 (MCF7): 20.1 µM | IC50 (MGC-803): 8.21 µM | IC50 (MKN-45): 73.9 µM | IC50 (HCT-116): 30.6 µM | IC50 (HepG2): 8.1 µM | IC50 (HeLa): 2.93 µM

CCOc1ccc(/C=C/c2cc(OC)c(OC)c(OC)c2)cc1OS(N)(=O)=O
IC50 (MCF7): 13.7 µM | IC50 (MGC-803): 7.63 µM | IC50 (MKN-45): 8.05 µM | IC50 (HCT-116): 9.12 µM | IC50 (HepG2): 2.63 µM | IC50 (HeLa): 5.64 µM

COc1cc(CCc2ccc(OC(F)F)c(OS(N)(=O)=O)c2)cc(OC)c1OC
IC50 (MCF7): 52.7 µM | IC50 (MGC-803): 23.3 µM | IC50 (MKN-45): 71.4 µM | IC50 (HCT-116): 26.5 µM | IC50 (HepG2): 15.9 µM | IC50 (HeLa): 35.6 µM

COc1cc2c(cc1O)CC[C@@H]1[C@@H]2CC[C@]2(C)[C@@H](O)CC[C@@H]12 [2-METHOXYESTRADIOL]
IC50 [2]: 40 µM

COc1ccc(/C=C\c2cc(OC)c(OC)c(OC)c2)cc1O [COMBRETASTATIN A4]
IC50 [1]: > 100 µM | IC50 (MCF7): 0.14 µM | IC50 (MGC-803): 0.006 µM | IC50 (MKN-45): 0.0081 µM | IC50 (HCT-116): 0.0047 µM | IC50 (HepG2): 0.0029 µM

C[C@]12CC[C@@H]3c4ccc(OS(N)(=O)=O)cc4CC[C@H]3[C@@H]1CCC2=O [EMATE]
IC50 [1]: 5.01 µM | IC50 (MCF7): 0.07 µM | IC50 (MGC-803): 0.48 µM | IC50 (Tubulin): 25.9 µM | IC50 (MKN-45): 0.54 µM | IC50 (HCT-116): 0.9 µM | IC50 (HepG2): 0.85 µM | IC50 (HeLa): 0.63 µM
